Columns and labels:
[1] = system: monoclonal antibody (IgG) generated against hapten 2 (benzylamine 2); test: Antibody-catalyzed elimination of HF from β-fluoroketone; type: biochemical, Balb/c mice
Procedure: Solutions of substrate 1 were incubated with 2 μM Ig at 37° C. in 10 mM Bis-tris-HCl, 100 mM NaCl pH 6.0, at substrate concentration between 50 and 500 μM. Protein molarity was determined by absorbance at 280 nm using ε^0.1% =1.37 and a molecular weight of 150 kD for IgG. Elimination was followed spectrophotometrically. […] One of these antibodies was characterized further. […] The kinetics of the reaction are consistent with the simple Michaelis-Menten rate expression: [drawing 3] These values afford a kcat /kuncat of 1480 at pH 6.0.
Values of Ki were determined at 10 mM Bis-tris-HCl, 100 mM NaCl, pH 6.0 (37° C.). Substrate concentrations were 200 and 500 μM, Ig concentration was 2 μM, hapten concentration was […] to 1 μM.
The pH dependence of kcat was also determined under the same reaction conditions. Values of kcat are as follows: kcat =0.083 min^-1 at pH 5.5, kcat =0.11 at pH 5.75, kcat =0.188 at pH 6.0, kcat =0.3 at pH 6.5 and kcat =0.43 at pH 7.5. A plot of kcat vs. kcat [H^+ ] gives a pKa of 6.1 for the active site base. It is very likely that this corresponds to a high pKa carboxylate based on the strategy for generating the antibody. Chemical modification experiments with diazoacetamide support this hypothesis.

[2] = molecular target: T1, MOPC315 Fv variant Fv(Y34HL), Tyr 34L to His (Mus musculus, UniProt P01729+P01822, Y53H); test: Hydrolysis of DNP coumarin esters 1-3 by Fv; type: biochemical, murine; conditions: for kcat (Table 2, Fv(Y34HL)): pH 6.8, SE (n = 3)
T1 construct: Antibody-derived VH was prepared by denaturing ion exchange chromatography of authentic MOPC315 Fv, obtained from pepsin digestion of purified IgA; lambda cII fusion with Factor Xa site (IleGluGlyArg) (N, cleaved yes); made in house; host or cells: VL: E. coli MZ1 (cII fusion, inclusion bodies); VH: pepsin-cleaved MOPC315 IgA from mouse ascites
Procedure: (§1) FIG. 22 is a Lineweaver-Burke plot of initial rate data obtained for the hydrolysis of 1 as described in Example 6 of the Experimental section herein. Four μl of a 100-fold concentrated solution of substrate 1 in DMSO was added to the 400 μl of Fv (115 nM) in buffer A while monitoring 7-hydroxycoumarin fluorescence at 25° C. (excitation:355nm; emission: 457 nm). A standard of 7-hydroxycoumarin was added at the completion of each assay to assess quenching of coumarin fluorescence by DNP at high substrate concentrations. The buffer background rate was subtracted from the initial rates. Each point represents the average velocity of at least duplicate experiments. Factor X, Factor Xa, or Russell's viper venom had no hydrolytic activity towards 1.
(§2) The ability of wild type and mutant Fvs to hydrolyze esters 1-3 was assayed by measuring the rate of coumarin release fluorimetrically at pH 6.8 (Pollack et al. (1988) supra; Pollack (1989) supra). […] Under these conditions, Fv(Y34HL) turns over at least 11 times and still retains 44% of its activity. The loss of activity is likely due to the accumulation of the inhibitory reaction product 8. […] Ester 2 was a poor substrate (kcat (2)=0.015 min^-1); and the hydrolysis of 3 was not accelerated (kcat (3)<0.005 min^-1). […] The initial rate of hydrolysis of 1 by Fv(Y34HL) at pH 6.8 is approximately 45-fold faster than the reaction with either […] (Table 2). At pH 8.7, the reactivity of Fv(Y34HL) and Fv(315) both increase, but differentially (v[Fv(Y34HL ]/v[Fv(315)]=3.3, at 10 μM 1). Under these conditions Fv(Y34HL) catalytically hydrolyzes 1 while Fv(315) reacts stoichiometrically. The increased reactivity of Fv(315) at higher pH may be due to deprotonation of the tyrosine hydroxyl and subsequent transesterification to form a relatively stable phenol ester.

[3] = molecular target: MOPC315 Fv variant Fv(Y34FL), Tyr 34L to Phe; test: Fv fluorescence titration with DNP-L-lysine; type: binding, murine; conditions: pH 6.8; ±SE
Procedure: (§3) FIG. 21 is a plot of Fv fluorescence titration with DNP-L-lysine as described in Example 6 of the Experimental section herein. Fv(315)(·),Fv(Y34FL)(Δ), or Fv(Y34HL)(o)(400 μl, 450-500 nM, ε280 nm=37,500 M^-1) in 100 mM potassium phosphate, pH 6.8 (buffer A), was titrated with solutions of 10-100 μM DNP-L-lysine (ε360 nm =17,500 M^-1) in buffer A while monitoring the protein fluorescence (excitation: 282 nm; emission: 343 nm). Fluorescence was corrected for the change in volume. Dissociation constants (KD) were determined by a modified Scatchard analysis.
(§4) The binding of ε-2,4-DNP-(L)-lysine (DNP Lys) by mutant wild type Fv proteins was assessed by titration of the intrinsic fluorescence of MOPC315 Fv (Hochman et al. (1973) supra; Hochman et al. (1977) supra), as shown in FIG. 21. […] DNP-aminoalkyl carboxylic acids of different lengths 6-9 (FIG. 16) were used to probe the location of the positively charged imidazole ring with respect to the DNP site in Fv(Y34HL) at pH 6.0.

[4] = molecular target: T2, MOPC315 Fv, wild type, Fv(315) (Mus musculus, UniProt P01729+P01822); test: Fv fluorescence titration with DNP-L-lysine; type: binding, murine; conditions: pH 6.8; ±SE
T2 construct: The Fv fragment (26 kD) is a heterodimer consisting of two peptides, VH (14 kD) and VL (12 kD); made in house; host or cells: MOPC315 myeloma ascites (Balb/c mice), IgA cleaved with pepsin
Procedure: as §3, §4

[5] = molecular target: MOPC315 Fv variant Fv(Y34HL), Tyr 34L to His; test: Fv fluorescence titration with DNP-L-lysine; type: binding, murine; conditions: pH 6.8; ±SE
Procedure: as §3, §4

[6] = molecular target: T3, MOPC315 Fab, thiolated (labeled with bromoketone 4; tyrosine 34L derivatized) (Mus musculus, UniProt P01729+P01822+P01844); test: Fluorescence quenching binding of substrate by thiolated Fab; set-up: species or system murine
T3 construct: made in house; host or cells: Fab by papain digestion of reduced and alkylated MOPC315 IgA (murine myeloma)
From the text: The reaction kinetics are consistent with the formation of a Michaelis complex (FIG. 6). […] Neither the uncleaved affinity-labeled antibody nor the iodoacetamide-alkylated antibody accelerated the rate of the thiolysis reaction above the background rate. The stoichiometry of product release corresponded to 1.0 coumarin to 1.0 Fab-SH. […] However, the introduction of both a thiol and a general base into the label may lead to a catalytic system (Bruice (1959) J. Am. Chem. Soc. 81:5444 and Street et al. (1985) J. Am. Chem. Soc. 107:7669).

[7] = molecular target: T4, MOPC315 Fab, thiolated (affinity-labeled with 2 and cleaved; free thiol at lysine 52H) (Mus musculus, UniProt P01729+P01822+P01878); test: Thiolysis of DNP coumarin ester by thiolated Fab; type: biochemical, murine
T4 construct: made in house; host or cells: Fab by papain digestion of reduced and alkylated MOPC315 IgA (murine myeloma)
Procedure: Cleavage of DNP coumarin esters 14 and 15 by the thiol-containing antibodies was assayed in the presence of 0.1M NaCl, 50 mM sodium phosphate, pH 7.0, with 24 μM dithiothreitol at 10° C. The release of free coumarin was quantitated fluorometrically, exciting at 355 nm and measuring emission at 455 nm. The S-thiopyridyl Fab was first dialyzed against assay buffer, 30 min. prior to the assays, an aliquot of the thiopyridyl Fab (0.15 mg in 0.19 ml) was reduced with 3.8 mM dithiothreitol at 20° C. For each assay, reduced, thiolated Fab (15 μg in 18.8 μl) was diluted with assay buffer (2.95 ml) so that the net concentrations of thiolated Fab and of dithiothreitol were 0.1 μM and 24 μM, respectively. After equilibrating, the substrate was added (30 μl of a stock solution in acetonitrile) and the solution mixed for 10 sec. before monitoring fluorescence change. Antibody rates were corrected by subtracting the rate of cleavage in the absence of Fab.
The reaction kinetics are consistent with the formation of a Michaelis complex (FIG. 6). […] Neither the uncleaved affinity-labeled antibody nor the iodoacetamide-alkylated antibody accelerated the rate of the thiolysis reaction above the background rate. The stoichiometry of product release corresponded to 1.0 coumarin to 1.0 Fab-SH. […]

underivatized MOPC 315 = test: Fluorescence quenching binding in PBS; set-up: species or system murine
Procedure: The hydrolysis of coumarin esters 1a-1d (FIG. 9) by the semisynthetic antibody was assayed in the presence and absence of 1 μM derivatized Fab at varying pH, at 30° C. (Morpholineethanesulfonic acid (100 mM) as used as the buffer in the range of pH 5 to 7. Sodium phosphate (100 mM) was used in the range of pH 6 to 8 and tris-HCl (100 mM) was used in the range of pH 7 to 9.) The release of free coumarin was quantitated fluorometrically, exciting at 355 nm and measuring emission at 455 nm. Antibody rates were corrected by subtracting the rate of cleavage in the absence of antibody. […] This value is almost identical to the KD (5 μM) for the binding of N-DNP-glycine to underivatized MOPC 315, (determined by fluorescence quenching in PBS). […] At pH>8, the unmodified Fab slightly accelerates the cleavage of ester 1b in a stoichiometric reaction, presumably involving modification of an amino acid side chain near the binding site. However, this reaction is not observed in the catalysis by the imidazole-derivatized antibody, where the reactive antibody side-chain is probably inaccessible. The catalytic activity of the semisynthetic antibody is destroyed by treatment with diethylpyrocarbonate, an imidazole-specific reagent. […]

[8] = molecular target: T2, MOPC315 Fv, wild type, Fv(315); test: Hydrolysis of DNP coumarin esters 1-3 by Fv; type: biochemical, murine; conditions: pH 6.8
Procedure: as §1, §2

[9] = system: antibody 15F1-3B1 (IgG, thymine dimer specific); test: Antibody-sensitized photocleavage of thymine dimer; type: biochemical, Balb/c mice
Procedure: Solutions of carboxymethylthymine dimer 1 were irradiated with 300 nm light in the presence of antibody; and dimer cleavage was assayed spectrophotometrically as follows. Deoxygenated solutions of thymine dimer (5-300 μM) and antibody (3 μM) in 100 mM NaCl, 10 mM phosphate buffer, pH 7.5 were irradiated at 18°-20° C. in a 1 mL quartz cuvette. All photolysis experiments were performed with a 1000 W high pressure Hg-Xe lamp equipped with a Photon Technologies International, Inc. Model Q5001 Quantacount electronic actinometer and a diffraction grating monochromator blazed at 500 nm. A bandpass of 3 nm was used for both kinetic and photon counting experiments. […] Monomer formation was assayed spectrophotometrically at fixed time intervals (λmax =272 nm, log ε=3.90).

[10] = substrate: O=C(CCNc1ccc([N+](=O)[O-])cc1[N+](=O)[O-])Oc1ccc2ccc(=O)oc2c1; test: Hydrolysis of DNP coumarin esters 1-3 by Fv; type: biochemical, murine; conditions: other: pH 6.8, 25° C.
Procedure: as §1, §2

[11] = substrate: O=C(CCCCNc1ccc([N+](=O)[O-])cc1[N+](=O)[O-])Oc1ccc2ccc(=O)oc2c1; test: Hydrolysis of DNP coumarin esters 1-3 by Fv; type: biochemical, murine; conditions: other: pH 6.8, 25° C.
Procedure: as §1, §2

T2 sequence (P01729 20-129, one chain of several): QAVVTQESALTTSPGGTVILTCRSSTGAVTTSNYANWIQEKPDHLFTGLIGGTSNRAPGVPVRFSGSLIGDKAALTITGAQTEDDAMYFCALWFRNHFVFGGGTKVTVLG
T4 sequence (P01822+P01878 fused): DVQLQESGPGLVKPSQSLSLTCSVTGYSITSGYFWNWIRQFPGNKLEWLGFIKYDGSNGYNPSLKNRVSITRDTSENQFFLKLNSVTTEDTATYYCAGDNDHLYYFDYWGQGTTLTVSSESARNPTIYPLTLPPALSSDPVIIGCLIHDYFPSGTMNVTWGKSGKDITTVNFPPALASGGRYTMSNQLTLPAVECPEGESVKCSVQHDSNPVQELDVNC
T4 sequence (P01729 20-129): as the sequence (P01729 20-129, one chain of several) above
T3 sequence (P01729+P01844 fused, one chain of several): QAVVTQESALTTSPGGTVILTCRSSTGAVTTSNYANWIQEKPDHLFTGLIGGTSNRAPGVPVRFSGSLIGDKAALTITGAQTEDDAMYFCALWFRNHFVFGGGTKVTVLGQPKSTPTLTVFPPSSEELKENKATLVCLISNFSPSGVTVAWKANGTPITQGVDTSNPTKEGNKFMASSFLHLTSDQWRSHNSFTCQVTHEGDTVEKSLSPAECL

In the case of CC(=O)CC(F)c1ccc([N+](=O)[O-])cc1 (racemic) [substrate 1, (R,S) 4-Fluoro-4-p-nitro phenylbutan-2-one], the kcat ([1]; pH 5.5) is reported as 0.00138 s⁻¹, the kcat ([1]; pH 5.75) is reported as 0.00183 s⁻¹ and the Km ([1]; pH 6.0, 37° C.) is reported as 182 µM. It also gave a kcat ([1]; pH 6.0, 37° C.) of 0.00313 s⁻¹, a kcat ([1]; pH 6.5) of 0.005 s⁻¹ and a kcat ([1]; pH 7.5) of 0.00717 s⁻¹.

Molecule N[C@@H](CCCCNc1ccc([N+](=O)[O-])cc1[N+](=O)[O-])C(=O)O [DNP-L-lysine, ε-2,4-DNP-(L)-lysine] has a Ki [2] of 3800 ± 1500 nM, a Kd [3] of 270 ± 30 nM and a Kd [4] of 270 ± 30 nM. It also gave a Kd [5] of 1400 ± 300 nM.

With CC(=O)Oc1ccc([N+](=O)[O-])cc1[N+](=O)[O-] [DNP-acetate] the “binding of substrate (fluorescence quenching)” value [6] was “did not bind the substrate with appreciable affinity”.

With O=C(O)CNc1ccc([N+](=O)[O-])cc1[N+](=O)[O-] [DNP-glycine, N-DNP-glycine] the Ki [7] was 8000 nM and the Kd (underivatized MOPC 315) was 5000 nM.

For O=C(CCCCCNc1ccc([N+](=O)[O-])cc1[N+](=O)[O-])Oc1ccc2ccc(=O)oc2c1 [compound 2], the “kcat (Table 2, Fv(315))” value [8] was 0.005 min and the “kcat (Table 2, Fv(Y34HL))” value [2] was 0.015 min.

With O=C(CCNc1ccc([N+](=O)[O-])cc1[N+](=O)[O-])Oc1ccc2ccc(=O)oc2c1 [compound 3] the “kcat (Table 2, Fv(Y34HL))” value [2] was < 0.005 min.

For C[C@]12C(=O)NC(=O)N(CC(=O)O)[C@H]1[C@H]1N(CC(=O)O)C(=O)NC(=O)[C@]12C [dimer 1, carboxymethylthymine-(cis,syn)cyclobutane dimer], the “kcat /Km” value ([9]; 300 nm irradiation, pH 7.5) was 3000 M⁻¹ s⁻¹, the Km ([9]; 300 nm irradiation, pH 7.5, 18°-20° C.) was 6.5 µM and the kcat ([9]; 300 nm, incident flux 1.26×10^-7 einsteins min^-1, pH 7.5, 18°-20° C.) was 0.02 s⁻¹.

B1: MOPC315 Fv variant Fv(Y34HL), Tyr 34L to His (Mus musculus; Y53H) (protein)
chain 1: QAVVTQESALTTSPGGTVILTCRSSTGAVTTSNHANWIQEKPDHLFTGLIGGTSNRAPGVPVRFSGSLIGDKAALTITGAQTEDDAMYFCALWFRNHFVFGGGTKVTVLGQPKST
chain 2: DVQLQESGPGLVKPSQSLSLTCSVTGYSITSGYFWNWIRQFPGNKLEWLGFIKYDGSNGYNPSLKNRVSITRDTSENQFFLKLNSVTTEDTATYYCAGDNDHLYYFDYWGQGTTLTVSS
notes: Antibody-derived VH was prepared by denaturing ion exchange chromatography of authentic MOPC315 Fv, obtained from pepsin digestion of purified IgA; lambda cII fusion with Factor Xa site (IleGluGlyArg) (N, cleaved yes); made in house; host or cells: VL: E. coli MZ1 (cII fusion, inclusion bodies); VH: pepsin-cleaved MOPC315 IgA from mouse ascites
Molecule B1 has a kcat [10] of 8.3e-05 s⁻¹, a Km [11] of 2.2 ± 0.2 µM and a kcat [11] of 0.003 ± 0.0005 s⁻¹. The kcat/Km [11] was 8.2×10^4 m^-1 min^-1.

Reference: patent publication US5215889A, “Catalytic and reactive polypeptides and methods for their preparation and use” (The Regents of the University of California, priority 1989, dated 1993)
